Source: US5188642A, “Glyphosate-resistant plants” (priority 1990, dated 1993)

Experiments:
tomato leaf fragments = assay: Tomato leaf callus assay on glyphosate; type: cell-based, tomato VF36; details: 0.5 mM glyphosate, 10 days
Protocol: Sterile seedlings of VF36 tomato are grown on water agar. Hypocotyls and cotyledons are excised and cultured for 2 days on MS medium containing B5 vitamins, 30 g/l sucrose and 1 mg/l benzyladenine and 0.1 mg/l indole acetic acid. The seedlings are then infected with the A. tumefaciens vector containing the chimeric EPSPS gene described in Example 2, by immersing for about 30 seconds in a culture of A. tumefaciens containing the chimeric EPSP synthase gene that had been diluted to 10^7 bacteria/ml. Explants are obtained by cutting sections from the seedlings. The explants are blotted dry and incubated as described previously in Example 2 except that the medium contains only 10% of standard concentration of MS salts. After 2 days of coculture, the explants are transferred to selective medium containing 100 ug/ml kanamycin. Transformed tomato plants grow from the explants. Leaves from these plants are tested for glyphosate resistance using a leaf callus assay described below. Tomato leaf fragments from plants containing vector alone (pMON200) or the pMON546 chimeric EPSPS gene are incubated on callus medium described above containing 0.5 mM glyphosate.

sunflower plants = assay: Sunflower plants sprayed with glyphosate; type: in vivo
MP4 cells = assay: Culture of MP4 petunia suspension cells in MS media containing glyphosate; type: cell-based; details: 0.5 mM glyphosate (sodium salt)
Protocol: The starting cell line, designated as the MP4 line, was derived from a Mitchell diploid petunia (see, e.g., Ausubel 1980). The MP4 cells were suspended in Murashige and Skoog (MS) culture media, (GIBCO, Grand Island, N.Y.) All transfer involved the transfer of 10 ml of suspension culture into 50 ml of fresh media. Cultivation periods until the next transfer ranged from 10 to 14 days, and were based on visual indications that the culture was approaching saturation.
After two transfers, the surviving cells were transferred into fresh media containing 1.0 mM glyphosate. After two transfers at 1.0 mM, the surviving cells were transferred sequentially into 2.5 mM glyphosate, 5.0 mM glyphosate, and 10 mM glyphosate. The MP4-G cells were subsequently shown (by a Southern blot) to have about 15-20 copies of the EPSPS gene, due to a genetic process called "gene amplification" (see, e.g., Schimke 1982). Although spontaneous mutations might have occurred during the replication of any cell, there is no indication that any mutation or other modification of the EPSPS gene occurred during the gene amplification process. The only known difference between the MP4 and the MP4-G cells is that the MP4-G cells contain multiple copies of an EPSPS gene and possibly other genes located near it on the chromosomes of the cells.

[1] = test system: sunflower tumors and callus; assay: Sunflower tumor and callus tolerance to glyphosate; type: cell-based
Text: The following procedures are utilized to obtain transformed sunflower tissue and shoots. Tumors are incited on sterile sunflower seedlings. Sunflower seeds are surface sterilized with 40% Chlorox and sterile distilled water rinses. The seeds are germinated on an agar medium containing B5 salts, 0.5% sucrose and 0.8% agar. Seven-day old seedlings are inoculated with overnight cultures of Agrobacterium strains carrying pTiB6S3-SE by scoring the internode or stabbing the internode with a syringe and using another syringe to introduce the bacteria into the wound. Tumors form in 2-3 weeks. The tumors are removed from the seedlings and grown independently on MS medium without hormones. Transformed callus and shoots are also obtained following a different procedure. Seeds are surface sterilized and placed on the germination medium above. Germination is carried out in the light for 10 days. Hypocotyl segments, 2-3 mm are, excised and inoculated with Agrobacterium strains containing engineered constructs. The hypocotyls are co-cultured for 2 days on a medium containing MS salts and vitamins, 5 g/l KN03, 100 mg/l inositol, 40 mg/l adenine sulfate, 500 mg/l casamino acids, 1 mg/l NAA, 1 mg/l BA, 0.1 mg/l GA3, […] and 8 gm/l agar. After co-culture, the hypocotyls are placed on the same medium but containing 300 mg/l kanamycin and 500 mg/l carbenicillin.
A. tumefaciens containing binary vectors pMON546 and helper plasmid pTiB6S3-SE are used to produce tumors and callus and regenerated plants.

[2] = test system: potato stem explant tissue; details: tissue transformed with pMON542
Protocol: Potato--Shoot tips of virus-free Russet Burbank are subcultured on media containing MS major and minor salts, 0.17 g/l sodium dihygrogen phosphate, 0.4 mg/l thiamine hydrochloride, 0.1 g/l inositol, 3% sucrose, 1.5 g/l Gelrite™ (Kelco, Co ) at pH 5.6. Cultures are grown at 24C in a 16 hour photoperiod. Shoots are used approximately 3-4 weeks after subculturing. Stem internodes are cut into approximately 8 mm lengths and split lengthwise, then the cut surface is smeared with Agrobacterium carrying binary vector pMON542 and helper plasmid pTiT37-SE which had been streaked on an LB agar plate and grown for a few days. Stem sections are placed cut side down on the surface of the medium containing MS salts, MS organics, 3% sucrose, 2.25 mg/l BA, […] NAA, 10 mg/l GA, 1.5 g/l Gelrite at pH 5.6. After 4 days, the stem explants are transferred to the same medium but with carbenicillin at 500 mg/l and kanamycin as the selective agent at 0 or 300 mg/l. Two weeks after inoculation, the explants are moved onto medium of the same composition but without NAA.

flax callus = assay: Flax callus resistance to glyphosate; type: cell-based; details: glyphosate between 5.0 and 20.0 mM
Protocol: Flax seeds are surface-sterilized with 70% ethanol, 25% Chlorox and rinsed with sterile distilled water. The seeds are placed on solid MS medium and allowed to germinate in the light for 5-7 days. The hypocotyls are removed aseptically and inoculated with A. tumefaciens cells containing the above-described transformation vector and helper plasmid pTiB6S3-SE or pTiT37-SE and permitted to co-culture for 2 days on MS medium containing 1 mg/l benzylaminopurine, 0.02 mg/l naphthalene acetic acid and 4% sucrose. The hypocotyls are then placed on MS medium supplemented with 400 mg/l kanamycin and 500 mg/l carbenicillin.
Control tissue is prepared using A. tumefaciens cells containing helper plasmid pTiB6S3-SE or pTiT37-SE and vector pMON200.

O=C(O)CNCP(=O)(O)O [glyphosate, N-phosphonomethylglycine]
callus growth from leaves (tomato leaf fragments; control leaves (pMON200 vector alone)): completely inhibited and showed no signs of callus growth
callus growth from leaves (tomato leaf fragments; leaves from plants transformed with chimeric EPSPS gene (pMON546)): produced callus
plant tolerance to spray (sunflower plants; transformed sunflower plants): demonstrate tolerance to glyphosate
plant response to spray (sunflower plants; wild type sunflower plants): kill wild type plants
viability at 500 µM (MP4 cells; estimated, read-out: cells which survived, share of the starting population): < 1%
ability of cells to reproduce (MP4 cells; MS media): large majority of cells were unable to reproduce
callus response ([1]; callus without the glyphosate resistance gene): kill callus without the glyphosate resistance gene
tumor response ([1]; control tumors which do not contain the glyphosate resistance gene): bleach and kill control tumors
callus tolerance ([1]; non-tumorous callus transformed with pMON546): show tolerance to levels of glyphosate
tumor tolerance ([1]; tumors produced with pMON546): exhibit tolerance to glyphosate
resistance of tissue [2]: exhibits substantial resistance to glyphosate
tissue response (flax callus; control tissue (pMON200)): bleaches and dies
callus resistance (flax callus; selected callus transformed with EPSPS vector): demonstrates resistance to glyphosate
